Measurements as given in US8815829B2, “3′-azido purine nucleotide prodrugs for treatment of viral infections” (priority 2008, dated 2014).
Where two headings read alike, the source gives them in different places.

Legend:
[1] = system: HIV-1/LAI; experiment: Anti-HIV-1 assay in PBM cells; type: cell-based
Description: Stock solutions (20-40 mM) of the compounds were prepared in sterile DMSO and then diluted to the desired concentration in growth medium. Cells were infected with the prototype HIV-1LAI at a multiplicity of infection of 0.01. Virus obtained from the cell supernatant was quantified on day 6 after infection by a reverse transcriptase assay using (rA)n·(dT)12-18 as template-primer. […] The antiviral EC50 and EC90 were obtained from the concentration-response curve using the median effective method described previously (see Chou T.-C. & Talalay P. Adv. Enzyme Regul. 1984, 22, 27-55; Belen'kii M. S. & Schinazi R. F. Antiviral Res. 1994, 25, 1-11).

[2] = system: adenosine deaminase; experiment: Adenosine deaminase assay (deamination of nucleosides); type: in vitro ADME
Description: In order to determine if these 6-substituted compounds are converted to G analogs by the enzyme adenosine deaminase, a series of enzyme kinetics experiments were undertaken.
To determine the propensity for deamination of the APN nucleosides by adenosine deaminase, nucleoside compounds were incubated with the commercially available purified enzyme, and the reaction was followed spectrophotometrically. Reaction conditions were 50 mM potassium phosphate, pH 7.4, with 50 μM APN nucleoside in 0.5 mL at 25° C. Reaction time was 7 minutes with 0.002 units of enzyme and 120 minutes with 0.2 units of enzyme. (The unit definition of adenosine deaminase is one unit will deaminate 1.0 μmol of adenosine to inosine per minute at pH 7.5 at 25° C.) Deoxyadenosine was the positive control which was 59% deaminated under the given conditions in 7 minutes with 0.002 units of enzyme. Deoxyguanosine was the negative control. Optical density was measured at 265 nm or 285 nm. The difference in optical density between the beginning and the end of the experiment was divided by the extinction coefficient then multiplied by the volume of the reaction to determine the number of mols of substrate transformed into product. Mols of product were divided by mols of substrate equivalent to a 100% complete reaction then multiplied by 100 to obtain percent deamination. The limit of detection was 0.001 optical density units.

[3] = system: HIV-2/pROD10; experiment: HIV-2 drug susceptibility in PBM cells; type: cell-based; conditions: Human immunodeficiency virus 2, PBMC
[4] = system: HBV; experiment: Anti-HBV assay (AD-38 cell line); type: cell-based; conditions: Hepatitis B virus
Description: The anti-HBV activity of the compounds was determined by treating the AD-38 cell line carrying wild type HBV under the control of tetracycline (see Ladner S. K., Otto M. J., Barker C. S., Zaifert K., Wang G. H., Guo J. T., Seeger C. & King R. W. Antimicrob. Agents Chemother. 1997, 41, 1715-20). Removal of tetracycline from the medium [Tet (−)] results in the production of HBV. The levels of HBV in the culture supernatant fluids from cells treated with the compounds were compared with that of the untreated controls. Control cultures with tetracycline [Tet (+)] were also maintained to determine the basal levels of HBV expression.

[5] = system: HCV Replicon RNA; experiment: HCV Replicon Assay (Huh 7 Clone B cells); type: cell-based; conditions: tested at 10 μM, five days
Excerpt: (§1) Agents Chemother. […] K., Otto, M. J., Schinazi, R. F. “Antiviral activities and cellular toxicities of modified 2′,3′-dideoxy-2′,3′-didehydrocytidine analogs” Antimicrob. Agents Chemother. 2002, 46, 3854-60. • ^cHSV-1 drug susceptibility assay was done as previously described in: Schinazi, R. F., Peters, J., Williams, C. C., Chance, D., Nahmias, A. J. “Effect of combinations of acyclovir with vidarabine or its 5′-monophosphate on herpes simplex virus in cell culture and in mice.” Antimicrob. Agents Chemother. 1982, 22, 499-507. • ^dHCV Replicon Assay^1: Huh 7 Clone B cells containing HCV Replicon RNA were seeded in a 96-well plate at 5000 cells/well, and the compounds were tested at 10 μM in triplicate immediately after seeding. Following five days incubation (37° C., 5% CO2), total cellular RNA was isolated by using versaGene RNA purification kit from Gentra. Replicon RNA and an internal control (TaqMan rRNA control reagents, Applied Biosystems) were amplified in a single step multiplex Real Time RT-PCR Assay. The antiviral effectiveness of the compounds was calculated by subtracting the threshold RT-PCR cycle of the test compound from the threshold RT-PCR cycle of the no-drug control (ΔCtHCV). A ΔCt of 3.3 equals a 1-log reduction (equal to 90% less starting material) in Replicon RNA levels. The cytotoxicity of the compounds was also calculated by using the ΔCt rRNA values. 77 (2′-Me-C) was used as the control. To determine EC90 and IC50 values^2, ΔCt: values were first converted into fraction of starting material^3 and then were used to calculate the % inhibition.

[6] = system: PBM cells; experiment: Cytotoxicity assay in PBM cells; type: cell-based, human
[7] = system: CEM cells; experiment: Cytotoxicity assay in CEM cells; type: cell-based, human
[8] = system: Vero cells; experiment: Cytotoxicity assay in Vero cells; type: cell-based
[9] = system: PBM cells; conditions: human, 4 h, 50 μM
[10] = system: HSV-1; experiment: HSV-1 drug susceptibility assay; type: cell-based
Excerpt: as §1

[11] = Human immunodeficiency virus 1, PBMC, PBM cells, read-out: HIV-1/LAI (PBM) EC50
[12] = Human immunodeficiency virus 1, PBMC, PBM cells, read-out: HIV-1/LAI (PBM) EC90
[13] = Table 5, read-out: Toxicity IC50 Vero
[14] = Chlorocebus sabaeus, Vero, read-out: Vero IC50
[15] = 50 μM nucleoside, pH 7.4, 25° C., 0.002 units enzyme
[16] = 50 μM nucleoside, pH 7.4, 25° C., 0.2 units enzyme

| SMILES | EC50 [1, 11] [µM] | EC90 [1, 12] [µM] | EC50 [3] [µM] | EC90 [3] [µM] | EC50 [4] [µM] | EC90 [4] [µM] | nucleotides detected (LC/MS) [9] | species not detected (LC/MS) [9] | further results |
| --- | --- | --- | --- | --- | --- | --- | --- | --- | --- |
| COCCNc1nc(N)nc2c1ncn2[C@H]1CC(N=[N+]=[N-])[C@@H](CO)O1 (stereo partly drawn) [Compound 74] | 2.1 | 16.2 |  |  |  |  |  |  |  |
| CN(C)c1nc(N)nc2c1ncn2[C@H]1CC(N=[N+]=[N-])[C@@H](CO)O1 (stereo partly drawn) [Compound 69] | 0.21 | 1.05 | 2.5 | 5.9 | > 10 | > 10 |  |  | Conversion by / stability to adenosine deaminase [2]: stable to adenosine deaminase |
| C[C@@]1(O)[C@H](O)[C@@H](CO)O[C@H]1n1ccc(N)nc1=O [2′-Me—C, reference compound] |  |  |  |  |  |  |  |  | EC50 [5]: 1.3 µM; EC90 [5]: 5.4 µM; IC50 ([6]; Table 5, read-out: Toxicity IC50 PBM): 29.4 µM; IC50 ([7]; Table 5, read-out: Toxicity IC50 CEM): 24.5 µM; IC50 [8, 13]: > 100 µM |
| CC(CO)Nc1nc(N)nc2c1ncn2[C@H]1CC(N=[N+]=[N-])[C@@H](CO)O1 (stereo partly drawn) [Compound 67] | 59.9 | > 10 | 51.6 | > 100 | > 10 | > 10 |  |  |  |
| CCOC(=O)[C@H](C)NP(=O)(OC[C@H]1O[C@@H](n2cnc3c(Cl)nc(N)nc32)CC1N=[N+]=[N-])Oc1ccccc1 (stereo partly drawn) [RS-784] |  |  |  |  |  |  |  |  | EC50 ([1]; Human immunodeficiency virus 1, PBMC, Tables 2-4, n = 3 for the MP prodrugs, read-out: HIV EC50): 0.035 µM; EC90 ([1]; Human immunodeficiency virus 1, PBMC, Tables 2-4, n = 3 for the MP prodrugs, read-out: HIV EC90): 0.1 µM; IC50 ([6]; Homo sapiens, PBMC, Tables 2-4, read-out: PBM IC50): 11.6 µM; IC50 ([7]; Homo sapiens, CCRF-CEM, Tables 2-4, read-out: CEM IC50): 13.5 µM; IC50 [8, 14]: > 100 µM |
| CCOC(=O)[C@H](C)NP(=O)(OC[C@H]1O[C@@H](n2cnc3c(N)nc(N)nc32)CC1N=[N+]=[N-])Oc1ccccc1 (stereo partly drawn) [RS-783] |  |  |  |  |  |  |  |  | EC50 ([1]; Tables 2-4, n = 3 for the MP prodrugs, read-out: HIV EC50): 0.0034 µM; EC90 ([1]; Tables 2-4, n = 3 for the MP prodrugs, read-out: HIV EC90): 0.035 µM; IC50 ([6]; Tables 2-4, read-out: PBM IC50): 9.6 µM; IC50 ([7]; Tables 2-4, read-out: CEM IC50): 12.1 µM; IC50 [8, 14]: > 100 µM |
| C=CCN(C)c1nc(N)nc2c1ncn2[C@H]1CC(N=[N+]=[N-])[C@@H](CO)O1 (stereo partly drawn) [Compound 63, 2-Amino-9-(3′-azido-2′,3′-dideoxy-β-D-erythro-pentofuranosyl)-6-N-methylallylamino-9H-purine] | 0.4 | 1.5 | 2.4 | 6.1 | > 10 | > 10 | detection of RFS-457-TP | No RFS-464, RFS-464-MP, RFS-464-DP, or RFS-464-TP were detected |  |
| Nc1nc2c(ncn2COCCO)c(=O)[nH]1 [ACV, reference compound] |  |  |  |  |  |  |  |  | EC50 [10]: 0.16 µM; EC90 [10]: 0.42 µM; IC50 [8, 13]: > 100 µM |
| COc1nc(N)nc2c1ncn2[C@H]1CC(N=[N+]=[N-])[C@@H](CO)O1 (stereo partly drawn) [Compound 70] |  |  |  |  |  |  | detection of RFS-506-DP, RFS-457-DP, and RFS-457-TP | No RFS-506, RFS-506-MP, or RFS-506-TP were detected | Deamination in 7 min (0.002 units Adenosine Deaminase) ([2]; 50 μM, pH 7.4): 0.55 ± 5.8%; Deamination in 120 min (0.2 units Adenosine Deaminase) ([2]; 50 μM, pH 7.4): 130.22 ± 4.72% |
| C=CCNc1nc(N)nc2c1ncn2[C@H]1CC(N=[N+]=[N-])[C@@H](CO)O1 (stereo partly drawn) [Compound 62, 2-Amino-9-(3′-azido-2′,3′-dideoxy-β-D-erythro-pentofuranosyl)-6-allylamino-9H-purine] | 0.5 | 4.3 | 0.71 | 7.4 | > 10 | > 10 | detection of RFS-457-DP and RFS-457-TP | No RFS-427, RFS-427-MP, RFS-427-DP, or RFS-427-TP were detected | Deamination in 120 min (0.2 units Adenosine Deaminase) ([2]; 50 μM, pH 7.4): 7.60% |
| [N-]=[N+]=NC1C[C@H](n2cnc3c(N)nc(N)nc32)O[C@@H]1CO (stereo partly drawn) [Compound 73, β-D-3′-azido-2,6-diamino-2′,3′-dideoxypurine] |  |  |  |  |  |  | detection of RFS-457, RFS-457-MP, RFS-457-DP, RFS-457-TP RFS-667-DP, and RFS-667-TP | No RFS-667 or RFS-667-MP were detected | major metabolite [9]: RFS-457-TP as the major metabolite |
| Nc1nc(O)c2ncn([C@H]3C[C@H](O)[C@@H](CO)O3)c2n1 [2Õ-deoxy- guanosine, Deoxyguanosine, reference compound] |  |  |  |  |  |  |  |  | Deamination in 7 min (0.002 units Adenosine Deaminase) [2, 15]: below level of detection; Deamination in 120 min (0.2 units Adenosine Deaminase) [2, 16]: below level of detection |
| Nc1ncnc2c1ncn2[C@H]1C[C@H](O)[C@@H](CO)O1 [2Õ-deoxy- adenosine, Deoxyadenosine, reference compound] |  |  |  |  |  |  |  |  | Deamination in 7 min (0.002 units Adenosine Deaminase) [2, 15]: 59.30%; Deamination in 7 min (0.002 units Adenosine Deaminase) ([2]; 50 μM nucleoside, pH 7.4, 25° C., 0.002 units enzyme, listed as Deoxyadenosine): 59%; Deamination in 120 min (0.2 units Adenosine Deaminase) [2, 16]: 105.50% |
| [N-]=[N+]=NC1C[C@H](n2cnc3c(NCCCCCO)nc(N)nc32)O[C@@H]1CO (stereo partly drawn) [Compound 64, 2-Amino-9-(3′-azido-2′,3′-dideoxy-β-D-erythro-pentofuranosyl)-6-aminopentanol-9H-purine] |  |  | > 100 | > 100 | > 10 | > 10 |  |  | EC50 ([1]; Human immunodeficiency virus 1, PBMC, read-out: HIV-1/LAI (PBM) EC50, PBM cells): 86.5 µM; EC90 ([1]; Human immunodeficiency virus 1, PBMC, read-out: HIV-1/LAI (PBM) EC90, PBM cells): > 10 µM |
| [N-]=[N+]=NC1C[C@H](n2cnc3c(NC4CC4)nc(N)nc32)O[C@@H]1CO (stereo partly drawn) [Compound 72] | 1.5 | 8.8 | 3.1 | 15.8 | > 10 | > 10 | detection of RFS-457-DP and RFS-457-TP | No RFS-512, RFS-512-MP, RFS-512-DP, or RFS-512-TP were detected | Deamination in 7 min (0.002 units Adenosine Deaminase) ([2]; 50 μM, pH 7.4): 0.56%; Deamination in 120 min (0.2 units Adenosine Deaminase) ([2]; 50 μM, pH 7.4): 33.40% |
| CC(C)(CO)Nc1nc(N)nc2c1ncn2[C@H]1CC(N=[N+]=[N-])[C@@H](CO)O1 (stereo partly drawn) [Compound 65, 2-Amino-9-(3′-azido-2′,3′-dideoxy-β-D-erythro-pentofuranosyl)-6-N-2-methyl-2-amino-propanol-9H-purine] | 52.5 | > 10 | > 100 | > 100 | > 10 | > 10 |  |  |  |
